According to publication PMC11561307, “Ultra-inert lanthanide chelates as mass tags for multiplexed bioanalysis” (Nature Communications, 2024):

Columns and labels:
Type in all cases: physicochemical
[1] = Epimerization of BocCys{Lu} diastereomers followed by 1H NMR; conditions: Supp. Fig. 22B, chirality inversion
Description: The ClickZip chelates are inherently chiral, with defined rotation of the pendant arms (Λ or Δ) and of the four ethylene units in the cyclen ring (λλλλ or δδδδ), analogous to the DOTA system[15],[27],[34]. However, in contrast to DOTA, they only adopt enantiomeric Λλλλλ and Δδδδδ forms with twisted-square antiprismatic (TSA) arrangements (Fig. 4). To probe whether these enantiomers can interconvert, we modified {Lu} with L-cysteine residues to produce a pair of distinguishable diastereomers. […] The enantiomers of {M} can thus be regarded either as one or two compounds, depending on the time scale.
Fig. 4 Chirality of ClickZip chelates. Inherent chirality of the molecules is given by rotation of the pendant arms (Λ or Δ) and of the four ethylene units in the cyclen ring (λλλλ or δδδδ). In theory, four isomers are possible: two twisted square antiprismatic (TSA) enantiomers (Λλλλλ and Δδδδδ), and two square antiprismatic (SA) enantiomers (Δλλλλ and Λδδδδ). The ClickZip chelates exclusively adopt the TSA arrangements Λλλλλ and Δδδδδ, which were observed together in all solid-state structures as well as in solution. These two forms interconvert on the time scale of hours at 37 °C (Supplementary Fig. 22). Both enantiomers shown here were found in the crystal structure of [{Lu}]^+[ClO4]^−·5H2O. Thermal ellipsoids were set at 50% probability.
Supplementary Fig. 97. Synthesis of BocCys {Lu} and its epimer separation. In a glass vial (4 mL), [Cl{Lu}] +[T FA ]−·5.1H2O (4.0 mg; 4.2 µmol; 1.0 equiv.) was dissolved in DMSO (160 µL) followed by addition of N-Boc-cysteine (200 mM in DMSO; 31 µL; 6.2 µmol; 1.5 equiv.) and DIPEA (7.3 µL; 42 µmol; 10 equiv.) and the resulting solution was stirred for 16 h at 40 °C. Mixture (containing racemic mixture of BocCys {Lu} epimers) was then diluted with DMSO (0.5 mL) and filtered through syringe microfilter (RC). Filtrate was then directly purified by preparative HPLC […]
Fractions with epimer A (front part of the first eluting peak) and B (latter part of the second eluting peak) were quickly freezed and directly lyophilized. The resulting solids were dissolved in 500 μL of deuterated 50 mM MOPS/NaOD buffer (formal pH 7.4; obtained from MOPS/NaOH buffer of such pH by multiple evaporation/D2O resupply cycles). Epimer A (obtained in slightly higher epimeric purity than epimer B) was used for continuous 1H NMR epimerization study at 37 °C (Supplementary Fig. 22) while epimer B was incubated concurrently under identical conditions on heated magnetic stirrer. Conversion: ≥95% (based on Cl {Lu}).

[2] = Kinetic inertness: acid-assisted dechelation in excess HCl; conditions: for t½ (1.0 M HCl, 80 °C): 0.5 mM chelate in 1.0 M HCl; for abundance of intact chelate: section above Supp. Fig 16, head with acid, temperature and time not given; for t½ (6.0 M HCl, 80 °C): 0.5 mM chelate in 6.0 M HCl, fit y = exp(−x/t), t½ = ln(2) × t
[3] = Hydrolysis of ClickZip conjugates with model hexapeptide in HCl; conditions: 0.5 mM conjugate in 2 M HCl at 80 °C; HPLC 285 nm; Y value after 4 d
Experimental: While the acid-assisted dechelation of lanthanide DOTA chelates proceeds with a rate similar to hydrolysis of a peptide bond[24], the ultra-inert ClickZip chelates of Lu^III and near lanthanides should outlast complete hydrolysis of peptides and proteins. To test this, we prepared model hexapeptide conjugates with two ClickZip derivatives, HO2CPh{Ln} or HO2CBn{Ln}, which differed in their amide linkage to the peptide N-end (Fig. 6). Hydrolysis in 2 M HCl at 80 °C digested the peptide to individual amino acids; the chelates were cleaved from the peptide with no loss of the metal (Lu^III or Tm^III), or only small loss (5% for Y^III chelate).
Fig. 6 ClickZip and peptide bond stability comparison. Hydrolysis of ClickZip conjugates with model hexapeptide AYFHVG-NH2 connected by either aromatic or aliphatic amide bonds in strong acid. Conditions: 0.5 mM {Ln}PhCO-AYFHVG-NH2 or {Ln}BnCO-AYFHVG-NH2 in 2 M HCl at 80 °C. Analysis: λ = 285 nm (HPLC, H2O–MeCN, formic acid additive). […] The hydrolysis is faster for {Ln}BnCO-AYFHVG-NH2 species connected to the peptide via aliphatic amide moiety (n = 1) where HO2CBn{Ln} is formed quantitatively after 1 d. […] Nevertheless, prolonged reaction time led to quantitative formation of HO2CPh{Ln}. […]

[4] = dechelation half-life, 0.5 mM chelate in 0.1 M HCl, 25 °C, HPLC-UV after 1 h, 1 day, 1 week, 1 month, exponential decay fit, ± error of the fit
[5] = dechelation half-life, 80 °C, HPLC-UV after 1 h, 1 day, 1 week, 1 month, exponential decay fit, ± error of the fit
[6] = dechelation half-life, 80 °C, HPLC-UV after 1 h, 1 day, 1 week, 1 month, ± error of the fit

O=C(CN1CC2CC(=O)Nc3cccc1c32)Nc1ccc2c(c1)C[C@]1(C2)C(=O)Nc2ncccc21 (single isomer, unassigned) [epimer A]
abundance, % of epimer ([1]; 0.757 h): 89.6% | abundance, % of epimer ([1]; 0.913 h): 83.6% | abundance, % of epimer ([1]; 1.220 h): 84.0% | abundance, % of epimer ([1]; 1.376 h): 90.7% | abundance, % of epimer ([1]; 1.532 h): 83.1% | abundance, % of epimer ([1]; 1.735 h): 83.8% | abundance, % of epimer ([1]; 1.891 h): 74.9% | abundance, % of epimer ([1]; 2.467 h): 74.2% | abundance, % of epimer ([1]; 2.641 h): 78.5% | abundance, % of epimer ([1]; 2.985 h): 70.9% | abundance, % of epimer ([1]; 3.611 h): 62.0% | abundance, % of epimer ([1]; 4.238 h): 64.6% | abundance, % of epimer ([1]; 4.864 h): 63.0% | abundance, % of epimer ([1]; 5.489 h): 63.7% | abundance, % of epimer ([1]; 6.704 h): 52.8% | abundance, % of epimer ([1]; 7.918 h): 58.7% | abundance, % of epimer ([1]; 9.132 h): 55.2% | abundance, % of epimer ([1]; 10.346 h): 50.5% | abundance, % of epimer ([1]; 11.560 h): 49.5% | abundance, % of epimer ([1]; 12.775 h): 50.6% | abundance, % of epimer ([1]; 13.988 h): 49.2% | abundance, % of epimer ([1]; 17.779 h): 50.3%

O=C([O-])CN1CCN2CCN(CC(=O)[O-])CCN(CC1)Cc1cccc(n1)-c1cnnn1Cc1cc(-c3ccccc3)cc(n1)C2.[Yb+3] [Ph{Yb}]
half-life, h ([2]; Figure 2A, 0.1 M HCl, 25 °C): too stable | half-life, h ([2]; Figure 2A, 0.1 M HCl, 80 °C): too stable | half-life, h ([2]; Figure 2A, 1.0 M HCl, 80 °C): too stable | half-life ([2]; Figure 2A, 6.0 M HCl, 80 °C): 195 days | t½ (0.1 M HCl, 25 °C) [2, 4]: too stable | t½ (0.1 M HCl, 80 °C) ([2]; dechelation half-life, 0.5 mM chelate in 0.1 M HCl, 80 °C, HPLC-UV after 1 h, 1 day, 1 week, 1 month, exponential decay fit, ± error of the fit): too stable | t½ (1.0 M HCl, 80 °C) [2, 5]: too stable | abundance of intact chelate [2]: 100.0%

O=C([O-])CN1CCN2CCN(CC(=O)[O-])CCN(CC1)Cc1cccc(n1)-c1cnnn1Cc1cc(-c3ccccc3)cc(n1)C2.[Y+3] [Ph{Y}]
t½ (0.1 M HCl, 25 °C) [2, 4]: too stable | abundance of intact chelate [2]: 100.0%

O=C([O-])CN1CCN(CC(=O)[O-])CCN(CC(=O)[O-])C(Cc2ccc([N+](=O)[O-])cc2)CN(CC(=O)[O-])CC1.[Gd+3] (centres unmarked) [[Gd(NO2BnDOTA)], reference compound]
t½ (6.0 M HCl, 80 °C) [2, 6]: too unstable

O=C([O-])CN1CCN(CC(=O)[O-])CCN(CC(=O)[O-])C(Cc2ccc([N+](=O)[O-])cc2)CN(CC(=O)[O-])CC1.[La+3] (centres unmarked) [[La(NO2BnDOTA)], reference compound]
t½ (1.0 M HCl, 80 °C) [2, 5]: too unstable | t½ (6.0 M HCl, 80 °C) [2, 6]: too unstable

O=C([O-])CN1CCN(CC(=O)[O-])CCN(CC(=O)[O-])C(Cc2ccc([N+](=O)[O-])cc2)CN(CC(=O)[O-])CC1.[Lu+3] (centres unmarked) [[Lu(NO2BnDOTA)], reference compound]
intact chelate (ratio NO2BnDOTA/[Lu(NO2BnDOTA)]) ([2]; 0.1 M HCl at 80 °C after 1 h, HPLC-UV, initial and repeated injection identical): 76% | t½ (6.0 M HCl, 80 °C) [2, 6]: too unstable

{Y}PhCO-AYFHVG-NH2 [model hexapeptide conjugate with {Y} tag, aromatic amide]
loss (leak) of metal ion during hydrolysis of hexapeptide conjugate [3]: ~ 5%
